ChEMBL document CHEMBL5104192, “Late-Stage Functionalization with Cysteine Staples Generates Potent and Selective Melanocortin Receptor-1 Agonists” (J Med Chem, 2022)
*1 amine or outer side, *2 acyl side, *3 side chain or, on linkers, in order; H or OH if unused. Where a SMILES comes first, the peptide text is derived from it. Bridges are numbered along the chain shown (N, C = ends). [ ]: non-standard residue; d: D form. X9 = O=C(NCCOCCOCCOCCNC(=O)OCC1C2CCc3nnn(CC(=O)N4CCCC[C@H]4C4(O)CN(C(=O)c5ccc(F)c(F)c5Nc5ccc(I)cc5F)C4)c3CCC21)OCC1C2CCc3c([*:1])nnc([*:2])c3CCC21; X8 = NCCNC(=O)OCC1C2CCc3c([*:1])nnc([*:2])c3CCC21; mXylylene = c1cc(C[*:1])cc(C[*:2])c1; oXylylene = c1ccc(C[*:2])c(C[*:1])c1; pXylylene = c1cc(C[*:2])ccc1C[*:1]; Nle = CCCC[C@H](N)C(=O)O

What was measured:
Homo sapiens [1] = species on record: Homo sapiens; assay: Selectivity ratio of Ki for human MC3R to Ki for human MC1R
Melanocortin receptor 4 = Melanocortin receptor 4 (Homo sapiens, UniProt P32245); assay: Displacement of [125I]-NDP-alpha-MSH from human MC4R expressed in HEK2936E cell membrane measured after 16 to 23 hrs by 1450 microbeta trilux scintillation proximity assay; type: cell membranes
Homo sapiens [2] = species on record: Homo sapiens; assay: Selectivity ratio of Ki for human MC4R to Ki for human MC1R
[3] = biological target: T1, Melanocyte-stimulating hormone receptor (Homo sapiens, UniProt Q01726); assay: Displacement of [125I]-NDP-alpha-MSH from human MC1R expressed in HEK2936E cell membrane measured after 16 to 23 hrs by 1450 microbeta trilux scintillation proximity assay; type: cell membranes
Melanocortin receptor 3 [4] = biological target: T2, Melanocortin receptor 3 (Homo sapiens, UniProt P41968); assay: Displacement of [125I]-NDP-alpha-MSH from human MC3R expressed in HEK2936E cell membrane measured after 16 to 23 hrs by 1450 microbeta trilux scintillation proximity assay; type: cell membranes
[5] = biological target: T1, Melanocyte-stimulating hormone receptor; assay: Agonist activity at human MC1R expressed in HEK2936E cells assessed as cAMP production in presence of IBMX by time resolved fluorescence assay; type: functional, cell-based; conditions: read-out: pEC50 (converted)
Melanocortin receptor 3 [6] = biological target: T2, Melanocortin receptor 3; assay: Agonist activity at human MC3R expressed in HEK2936E cells assessed as cAMP production in presence of IBMX by time resolved fluorescence assay; type: functional, cell-based

Chain of Melanocortin receptor 4 (P32245 whole entry): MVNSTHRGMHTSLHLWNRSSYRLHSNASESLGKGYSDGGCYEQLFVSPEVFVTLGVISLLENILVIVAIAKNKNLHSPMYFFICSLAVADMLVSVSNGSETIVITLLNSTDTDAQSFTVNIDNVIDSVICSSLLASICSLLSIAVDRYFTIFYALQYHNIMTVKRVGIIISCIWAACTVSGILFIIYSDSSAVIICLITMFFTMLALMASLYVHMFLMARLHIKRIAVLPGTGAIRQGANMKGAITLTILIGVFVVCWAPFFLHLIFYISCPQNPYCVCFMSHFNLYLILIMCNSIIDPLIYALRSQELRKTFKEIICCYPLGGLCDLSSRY
T2 sequence (P41968 whole entry): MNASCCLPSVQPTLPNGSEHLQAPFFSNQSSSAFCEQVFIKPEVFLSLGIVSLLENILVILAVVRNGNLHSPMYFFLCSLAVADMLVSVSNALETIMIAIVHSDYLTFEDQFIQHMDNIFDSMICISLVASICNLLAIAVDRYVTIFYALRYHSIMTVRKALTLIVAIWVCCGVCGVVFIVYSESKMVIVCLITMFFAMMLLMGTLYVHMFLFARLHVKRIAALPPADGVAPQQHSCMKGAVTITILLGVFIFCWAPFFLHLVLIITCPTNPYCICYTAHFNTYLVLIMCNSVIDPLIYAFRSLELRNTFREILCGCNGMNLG
T1 sequence (Q01726 whole entry): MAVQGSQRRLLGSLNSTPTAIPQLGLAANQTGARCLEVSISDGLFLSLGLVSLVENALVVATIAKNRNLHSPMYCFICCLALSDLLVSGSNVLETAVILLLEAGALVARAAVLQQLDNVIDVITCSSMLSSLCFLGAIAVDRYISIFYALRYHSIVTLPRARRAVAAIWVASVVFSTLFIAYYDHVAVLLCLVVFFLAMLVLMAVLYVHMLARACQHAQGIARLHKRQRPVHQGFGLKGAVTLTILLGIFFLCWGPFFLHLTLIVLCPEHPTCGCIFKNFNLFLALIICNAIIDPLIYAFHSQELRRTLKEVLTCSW

Ratio Ki (Homo sapiens [1])	Ki (Melanocortin receptor 4) [nM]	Ratio Ki (Homo sapiens [2])	Ki [3] [nM]	Ki (Melanocortin receptor 3 [4]) [nM]	EC50 [5] [nM]	EC50 (Melanocortin receptor 3 [6]) [nM]	Structure (SMILES)
115	0.912	166	< 0.0055	0.631			CCCC[C@@H]1NC(=O)[C@@H]2CSc3nnc(c4c3CCC3C(CC4)C3COC(=O)NCCN)SC[C@H](NC(=O)[C@H](CCCNC(=N)N)NC(=O)[C@H](CC(=O)O)NC(=O)[C@H](Cc3c[nH]c4ccccc34)NC(=O)[C@H](CCCNC(=N)N)NC(=O)[C@H](Cc3ccccc3)NC(=O)[C@H](Cc3cnc[nH]3)NC(=O)CNC1=O)C(=O)N[C@@H](Cc1cnc[nH]1)C(=O)N[C@@H](Cc1ccccc1)C(=O)N[C@@H](CCCNC(=N)N)C(=O)N[C@@H](Cc1c[nH]c3ccccc13)C(=O)N[C@@H](CCCNC(=N)N)C(=O)N2 (some centres not stated) (cyclo(CHFRWRC[Nle]GHFRWDR); linker 1-7 via X8)
17	91.2	41	2.24	37.2			CCCC[C@@H]1NC(=O)[C@@H]2CSc3nnc(c4c3CCC3C(CC4)C3COC(=O)NCCOCCOCCOCCNC(=O)OCC3C4CCc5c6nnc(c5CCC43)SC[C@@H]3NC(=O)[C@H](CCCNC(=N)N)NC(=O)[C@H](CC(=O)O)NC(=O)[C@H](Cc4c[nH]c5ccccc45)NC(=O)[C@H](CCCNC(=N)N)NC(=O)[C@H](Cc4ccccc4)NC(=O)[C@H](Cc4cnc[nH]4)NC(=O)CNC(=O)[C@H](CCCC)NC(=O)[C@H](CS6)NC(=O)[C@H](CCCNC(=N)N)NC(=O)[C@H](Cc4c[nH]c5ccccc45)NC(=O)[C@H](CCCNC(=N)N)NC(=O)[C@H](Cc4ccccc4)NC(=O)[C@H](Cc4cnc[nH]4)NC3=O)SC[C@H](NC(=O)[C@H](CCCNC(=N)N)NC(=O)[C@H](CC(=O)O)NC(=O)[C@H](Cc3c[nH]c4ccccc34)NC(=O)[C@H](CCCNC(=N)N)NC(=O)[C@H](Cc3ccccc3)NC(=O)[C@H](Cc3cnc[nH]3)NC(=O)CNC1=O)C(=O)N[C@@H](Cc1cnc[nH]1)C(=O)N[C@@H](Cc1ccccc1)C(=O)N[C@@H](CCCNC(=N)N)C(=O)N[C@@H](Cc1c[nH]c3ccccc13)C(=O)N[C@@H](CCCNC(=N)N)C(=O)N2 (some centres not stated)
17	30.9	47	0.661	11.5			CCCC[C@@H]1NC(=O)[C@@H]2CSc3nnc(c4c3CCC3C(CC4)C3COC(=O)NCCNC(=O)CCOCCOCCOCCOCCOCCC(=O)NCCNC(=O)OCC3C4CCc5c6nnc(c5CCC43)SC[C@@H]3NC(=O)[C@H](CCCNC(=N)N)NC(=O)[C@H](CC(=O)O)NC(=O)[C@H](Cc4c[nH]c5ccccc45)NC(=O)[C@H](CCCNC(=N)N)NC(=O)[C@H](Cc4ccccc4)NC(=O)[C@H](Cc4cnc[nH]4)NC(=O)CNC(=O)[C@H](CCCC)NC(=O)[C@H](CS6)NC(=O)[C@H](CCCNC(=N)N)NC(=O)[C@H](Cc4c[nH]c5ccccc45)NC(=O)[C@H](CCCNC(=N)N)NC(=O)[C@H](Cc4ccccc4)NC(=O)[C@H](Cc4cnc[nH]4)NC3=O)SC[C@H](NC(=O)[C@H](CCCNC(=N)N)NC(=O)[C@H](CC(=O)O)NC(=O)[C@H](Cc3c[nH]c4ccccc34)NC(=O)[C@H](CCCNC(=N)N)NC(=O)[C@H](Cc3ccccc3)NC(=O)[C@H](Cc3cnc[nH]3)NC(=O)CNC1=O)C(=O)N[C@@H](Cc1cnc[nH]1)C(=O)N[C@@H](Cc1ccccc1)C(=O)N[C@@H](CCCNC(=N)N)C(=O)N[C@@H](Cc1c[nH]c3ccccc13)C(=O)N[C@@H](CCCNC(=N)N)C(=O)N2 (some centres not stated)
			0.245	13.8	0.0891	0.331	CCCC[C@@H]1NC(=O)[C@@H]2CSCc3ccc(cc3)CSC[C@H](NC(=O)[C@H](CCCNC(=N)N)NC(=O)[C@H](CC(=O)O)NC(=O)[C@H](Cc3c[nH]c4ccccc34)NC(=O)[C@H](CCCNC(=N)N)NC(=O)[C@H](Cc3ccccc3)NC(=O)[C@H](Cc3cnc[nH]3)NC(=O)CNC1=O)C(=O)N[C@@H](Cc1cnc[nH]1)C(=O)N[C@@H](Cc1ccccc1)C(=O)N[C@@H](CCCNC(=N)N)C(=O)N[C@@H](Cc1c[nH]c3ccccc13)C(=O)N[C@@H](CCCNC(=N)N)C(=O)N2 (cyclo(CHFRWRC[Nle]GHFRWDR); linker 1-7 via pXylylene)
			0.407	13.5	0.0871	0.309	CCCC[C@@H]1NC(=O)[C@@H]2CSCc3cccc(c3)CSC[C@H](NC(=O)[C@H](CCCNC(=N)N)NC(=O)[C@H](CC(=O)O)NC(=O)[C@H](Cc3c[nH]c4ccccc34)NC(=O)[C@H](CCCNC(=N)N)NC(=O)[C@H](Cc3ccccc3)NC(=O)[C@H](Cc3cnc[nH]3)NC(=O)CNC1=O)C(=O)N[C@@H](Cc1cnc[nH]1)C(=O)N[C@@H](Cc1ccccc1)C(=O)N[C@@H](CCCNC(=N)N)C(=O)N[C@@H](Cc1c[nH]c3ccccc13)C(=O)N[C@@H](CCCNC(=N)N)C(=O)N2 (cyclo(CHFRWRC[Nle]GHFRWDR); linker 1-7 via mXylylene)
25	33.1	79	0.417	10.2			CCCC[C@@H]1NC(=O)[C@@H]2CSc3nnc(c4c3CCC3C(CC4)C3COC(=O)NCCOCCOCCNC(=O)CCOCCOCCOCCOCCOCCC(=O)NCCOCCOCCNC(=O)OCC3C4CCc5c6nnc(c5CCC43)SC[C@@H]3NC(=O)[C@H](CCCNC(=N)N)NC(=O)[C@H](CC(=O)O)NC(=O)[C@H](Cc4c[nH]c5ccccc45)NC(=O)[C@H](CCCNC(=N)N)NC(=O)[C@H](Cc4ccccc4)NC(=O)[C@H](Cc4cnc[nH]4)NC(=O)CNC(=O)[C@H](CCCC)NC(=O)[C@H](CS6)NC(=O)[C@H](CCCNC(=N)N)NC(=O)[C@H](Cc4c[nH]c5ccccc45)NC(=O)[C@H](CCCNC(=N)N)NC(=O)[C@H](Cc4ccccc4)NC(=O)[C@H](Cc4cnc[nH]4)NC3=O)SC[C@H](NC(=O)[C@H](CCCNC(=N)N)NC(=O)[C@H](CC(=O)O)NC(=O)[C@H](Cc3c[nH]c4ccccc34)NC(=O)[C@H](CCCNC(=N)N)NC(=O)[C@H](Cc3ccccc3)NC(=O)[C@H](Cc3cnc[nH]3)NC(=O)CNC1=O)C(=O)N[C@@H](Cc1cnc[nH]1)C(=O)N[C@@H](Cc1ccccc1)C(=O)N[C@@H](CCCNC(=N)N)C(=O)N[C@@H](Cc1c[nH]c3ccccc13)C(=O)N[C@@H](CCCNC(=N)N)C(=O)N2 (some centres not stated)
24	170	79	2.14	51.3			CCCC[C@@H]1NC(=O)[C@@H]2CSc3nnc(c4c3CCC3C(CC4)C3COC(=O)NCCOCCOCCOCCNC(=O)OCC3C4CCc5nnn(CC(=O)N6CCCC[C@H]6C6(O)CN(C(=O)c7ccc(F)c(F)c7Nc7ccc(I)cc7F)C6)c5CCC43)SC[C@H](NC(=O)[C@H](CCCNC(=N)N)NC(=O)[C@H](CC(=O)O)NC(=O)[C@H](Cc3c[nH]c4ccccc34)NC(=O)[C@H](CCCNC(=N)N)NC(=O)[C@H](Cc3ccccc3)NC(=O)[C@H](Cc3cnc[nH]3)NC(=O)CNC1=O)C(=O)N[C@@H](Cc1cnc[nH]1)C(=O)N[C@@H](Cc1ccccc1)C(=O)N[C@@H](CCCNC(=N)N)C(=O)N[C@@H](Cc1c[nH]c3ccccc13)C(=O)N[C@@H](CCCNC(=N)N)C(=O)N2 (some centres not stated) (cyclo(CHFRWRC[Nle]GHFRWDR); linker 1-7 via X9)
			1.58	26.3	0.195	0.347	CCCC[C@@H]1NC(=O)[C@@H]2CSCc3ccccc3CSC[C@H](NC(=O)[C@H](CCCNC(=N)N)NC(=O)[C@H](CC(=O)O)NC(=O)[C@H](Cc3c[nH]c4ccccc34)NC(=O)[C@H](CCCNC(=N)N)NC(=O)[C@H](Cc3ccccc3)NC(=O)[C@H](Cc3cnc[nH]3)NC(=O)CNC1=O)C(=O)N[C@@H](Cc1cnc[nH]1)C(=O)N[C@@H](Cc1ccccc1)C(=O)N[C@@H](CCCNC(=N)N)C(=O)N[C@@H](Cc1c[nH]c3ccccc13)C(=O)N[C@@H](CCCNC(=N)N)C(=O)N2 (cyclo(CHFRWRC[Nle]GHFRWDR); linker 1-7 via oXylylene)
